# Assay results reported in US20090197955A1, “METHODS OF IMPROVING DHA DEPOSITION AND RELATED FUNCTION AND/OR DEVELOPMENT” (Monsanto Company, priority 2008, published 2009).
# Columns and labels:
# [1] = Heart phospholipid fatty acid composition of pigs fed SDA; format: in vivo; settings: for Average heart DHA level, percent of total fatty acids / Average heart EPA level, percent of total fatty acids / Average heart SDA level, percent of total fatty acids: 35 days
# Description: (§1) After completion of the feeding phase, animals were slaughtered and tissues were collected for evaluation. A sample of brain was obtained by making a cup from the occipital condyle at the base of the skull to the back of the eye. A portion of the brain from the cerebral cortex, and some of the mid brain was collected. About 1 g of frozen heart or brain tissue was pulverized in a stainless steel mortar and pestle maintained at −70° C. It was then suspended in 2 mL of ice-cold saline and sonicated on ice to thoroughly disperse the tissue. The lipids were extracted with methylene chloride:methanol. The PL fractions were isolated by thin layer chromatography and methylated for 10 minutes in BF3-methanol at 100° C. After extraction of the fatty acid methyl esters (FAME) with hexane:water, their composition was analyzed in a GC2010 (Shimadzu Scientific Instruments, Columbia, Md.) using a fused silica capillary columns (SP-2560, 100 m length, 0.25 mm internal diameter, 0.25 um film thickness, Supelco, Bellefonte, Pa.). A weighed external standard fatty acid (FA) mixture (GLC727, NuCheck Prep, Elysian, Minn.) was included to correct for potential differences in FA response factors. The response factor for palmitic acid of is assumed to be 1.0. Results were expressed as a percent of total identified FA (for composition endpoints) and as mg FA/g tissue.
# [2] = Brain phospholipid fatty acid composition of pigs fed SDA; format: in vivo; settings: for Brain phospholipid DHA, percent of total fatty acids / Brain phospholipid EPA, percent of total fatty acids / Brain phospholipid SDA, percent of total fatty acids: 35 days
# Description: as §1, with “In addition to measuring long-chain fatty acid incorporation into tissues, additional research was undertaken to understand the alterations in fatty acid concentration in the brain and heart tissues. In particular, DHA is known to be a significant fraction of brain composition. As such, the following experiments were conducted with brain matter extracted from the pigs used in the study above. After completion” for “After completion”
# [3] = Brain outer cortex lipid fatty acid analysis, control vs 0.8% SDA; format: in vivo, pigs
# Description: About 1 g of frozen heart or brain tissue was pulverized in a stainless steel mortar and pestle maintained at −70° C. It was then suspended in 2 mL of ice-cold saline and sonicated on ice to thoroughly disperse the tissue. The lipids were extracted with methylene chloride:methanol. […] After extraction of the fatty acid methyl esters (FAME) with hexane:water, their composition was analyzed in a GC2010 (Shimadzu Scientific Instruments, Columbia, Md.) using a fused silica capillary columns (SP-2560, 100 m length, 0.25 mm internal diameter, 0.25 um film thickness, Supelco, Bellefonte, Pa.). A weighed external standard fatty acid (FA) mixture (GLC727, NuCheck Prep, Elysian, Minn.) was included to correct for potential differences in FA response factors. The response factor for palmitic acid of is assumed to be 1.0. Results were expressed as a percent of total identified FA (for composition endpoints) and as mg FA/g tissue. To further explore the effect of SDA on brain tissue composition, samples from the four control and four high dose (Treatment 5) animals were shaved to isolate the outer cortex. This was done to test the hypothesis that white, myelinated tissue found in the mid brain may not accumulate DHA as readily as gray matter in the cerebral cortex.
# [4] = cited from earlier work
# [5] = prior studies; cited from earlier work
# [6] = 0.8% SDA (Treatment 5), average
smiles,measurement,setting,value
"CC/C=C\C/C=C\C/C=C\C/C=C\CCCCC(=O)O [SDA, stearidonic acid]","Average heart DHA level, percent of total fatty acids",[1]; SDA 0.2%,0.49%
same,"Average heart EPA level, percent of total fatty acids",[1]; SDA 0.2%,1.82%
same,"Average heart SDA level, percent of total fatty acids",[1]; SDA 0.2%,0.05%
same,"Average heart DHA level, percent of total fatty acids",[1]; SDA 0.4%,0.42%
same,"Average heart EPA level, percent of total fatty acids",[1]; SDA 0.4%,3.86%
same,"Average heart SDA level, percent of total fatty acids",[1]; SDA 0.4%,0.13%
same,"Average heart DHA level, percent of total fatty acids",[1]; SDA 0.6%,0.57%
same,"Average heart EPA level, percent of total fatty acids",[1]; SDA 0.6%,4.83%
same,"Average heart SDA level, percent of total fatty acids",[1]; SDA 0.6%,0.19%
same,"Average heart DHA level, percent of total fatty acids",[1]; SDA 0.8%,0.62%
same,"Average heart EPA level, percent of total fatty acids",[1]; SDA 0.8%,6.71%
same,"Average heart SDA level, percent of total fatty acids",[1]; SDA 0.8%,0.36%
same,"Dose response for deposition of SDA, EPA and DHA in heart phospholipids",[1]; regression analysis on the mean response at each dose level,statistically significant (p<0.05)
same,"Brain phospholipid DHA, percent of total fatty acids",[2]; SDA 0.2%,10.07%
same,"Brain phospholipid EPA, percent of total fatty acids",[2]; SDA 0.2%,0.02%
same,"Brain phospholipid SDA, percent of total fatty acids",[2]; SDA 0.2%,0.01%
same,"Brain phospholipid DHA, percent of total fatty acids",[2]; SDA 0.4%,9.15%
same,"Brain phospholipid EPA, percent of total fatty acids",[2]; SDA 0.4%,0.04%
same,"Brain phospholipid SDA, percent of total fatty acids",[2]; SDA 0.4%,0.01%
same,"Brain phospholipid DHA, percent of total fatty acids",[2]; SDA 0.6%,10.99%
same,"Brain phospholipid EPA, percent of total fatty acids",[2]; SDA 0.6%,0.06%
same,"Brain phospholipid SDA, percent of total fatty acids",[2]; SDA 0.6%,0.01%
same,"Brain phospholipid DHA, percent of total fatty acids",[2]; SDA 0.8%,11.21%
same,"Brain phospholipid EPA, percent of total fatty acids",[2]; SDA 0.8%,0.06%
same,"Brain phospholipid SDA, percent of total fatty acids",[2]; SDA 0.8%,0.01%
same,Deposition of EPA and DHA in the brain,[2]; SDA feeding,dose response deposition of EPA and DHA in the brain
same,"C14:0, brain outer cortex",[3]; [6],0.50%
same,"C16:0, brain outer cortex",[3]; [6],24.20%
same,"C16:1n7, brain outer cortex",[3]; [6],1.05%
same,"C16:1n7t, brain outer cortex",[3]; [6],0.28%
same,"C18:0, brain outer cortex",[3]; [6],16.53%
same,"C18:1n9, brain outer cortex",[3]; [6],19.14%
same,"C18:1t, brain outer cortex",[3]; [6],0.08%
same,"C18:2n6, brain outer cortex",[3]; [6],0.63%
same,"C18:2n6t, brain outer cortex",[3]; [6],0.23%
same,"C18:3n3, brain outer cortex",[3]; [6],0.15%
same,"C18:3n6, brain outer cortex",[3]; [6],0.02%
same,"C18:4n3, brain outer cortex",[3]; [6],0.02%
same,"C20:1n9, brain outer cortex",[3]; [6],0.23%
same,"C20:2n6, brain outer cortex",[3]; [6],0.06%
same,"C20:3n6, brain outer cortex",[3]; [6],0.35%
same,"C20:4n6, brain outer cortex",[3]; [6],11.48%
same,"C20:5n3, brain outer cortex",[3]; [6],0.15%
same,"C22:4, brain outer cortex",[3]; [6],2.90%
same,"C22:5n3, brain outer cortex",[3]; [6],0.98%
same,"C22:5n6, brain outer cortex",[3]; [6],3.58%
same,"C22:6n3, brain outer cortex",[3]; [6],17.38%
same,"C24:0, brain outer cortex",[3]; [6],0.02%
same,"C24:1n9, brain outer cortex",[3]; [6],0.05%
same,"OMX-3 (Omega 3 Index, sum of EPA and DHA), brain outer cortex",[3]; [6],17.53%
same,DHA and EPA in total lipid extract of the outer cortex region,[3]; Treatment 5 vs control,increase in DHA and EPA
same,Amount of SDA relative to EPA needed to enrich blood tissues with an equivalent amount of EPA,[4],3 times
same,DHA concentrations in blood or tissues after feeding SDA,[5],failed to find evidence of increased DHA concentrations
